From ChEMBL document CHEMBL3352057, “Novel fluorinated pyrrolo[1,2-a]pyrazine-2,6-dione derivatives: synthesis and anticonvulsant evaluation in animal models of epilepsy” (Bioorg Med Chem, 2014)
Active and inactive are the calls of the source. No cut-off for these calls is given here.

Assays:
Mus musculus [1] = assay: Anticonvulsant activity in ip dosed albino CF1 mouse assessed as protection against 6 Hz current-induced seizures measured as time to peak effect; type: functional
Mus musculus [2] = assay: Anticonvulsant activity in ip dosed corneal kindled albino CF1 mouse seizure model; type: functional
[3] = Protective index, ratio of TD50 for neurotoxicity in ip dosed albino CF1 mouse to ED50 for anticonvulsant activity in ip dosed 6 Hz current-induced seizure albino CF1 mouse model; type: toxicity, organism-based; details: in vivo, read-out: Ratio TD50/ED50
Mus musculus [4] = assay: Anticonvulsant activity in ip dosed albino CF1 mouse assessed as protection against 6 Hz current-induced seizures; type: functional
Mus musculus [5] = assay: Anticonvulsant activity in ip dosed corneal kindled albino CF1 mouse seizure model assessed as time to peak effect; type: functional
Mus musculus [6] = assay: Neurotoxicity in ip dosed 6 Hz current-induced seizure albino CF1 mouse model; type: toxicity, organism-based; details: in vivo
Mus musculus [7] = assay: Neurotoxicity in albino CF1 mouse at 300 mg/kg, ip measured after 0.5 hr; type: toxicity, organism-based; set-up: dose 300 mg/kg, route intraperitoneal; details: in vivo
Mus musculus [8] = assay: Neurotoxicity in albino CF1 mouse at 100 mg/kg, ip measured after 0.5 hr; type: toxicity, organism-based; set-up: dose 100 mg/kg, route intraperitoneal; details: in vivo
Mus musculus [9] = assay: Anticonvulsant activity in albino CF1 mouse assessed as protection against maximal electroshock-induced seizures at 100 mg/kg, ip measured after 0.5 hr; type: functional, organism-based; set-up: dose 100 mg/kg
Mus musculus [10] = assay: Neurotoxicity in albino CF1 mouse at 100 mg/kg, ip measured after 4 hrs; type: toxicity, organism-based; set-up: dose 100 mg/kg, route intraperitoneal; details: in vivo
Mus musculus [11] = assay: Anticonvulsant activity in albino CF1 mouse assessed as protection against maximal electroshock-induced seizures at 100 mg/kg, ip measured after 1 hr; type: functional, organism-based; set-up: dose 100 mg/kg
Mus musculus [12] = assay: Anticonvulsant activity in albino CF1 mouse assessed as protection against subcutaneous metrazol-induced seizures at 300 mg/kg, ip measured after 0.5 hr; type: functional, organism-based; set-up: dose 300 mg/kg
Mus musculus [13] = assay: Anticonvulsant activity in albino CF1 mouse assessed as protection against maximal electroshock-induced seizures at 100 mg/kg, ip measured after 4 hrs; type: functional, organism-based; set-up: dose 100 mg/kg
Mus musculus [14] = assay: Neurotoxicity in albino CF1 mouse at 100 mg/kg, ip measured after 0.25 hr; type: toxicity, organism-based; set-up: dose 100 mg/kg, route intraperitoneal; details: in vivo
Mus musculus [15] = assay: Neurotoxicity in albino CF1 mouse at 100 mg/kg, ip measured after 1 hr; type: toxicity, organism-based; set-up: dose 100 mg/kg, route intraperitoneal; details: in vivo
Mus musculus [16] = assay: Anticonvulsant activity in albino CF1 mouse assessed as protection against maximal electroshock-induced seizures at 100 mg/kg, ip measured after 0.25 hr; type: functional, organism-based; set-up: dose 100 mg/kg
Mus musculus [17] = assay: Anticonvulsant activity in albino CF1 mouse assessed as protection against subcutaneous metrazol-induced seizures at 100 mg/kg, ip measured after 4 hrs; type: functional, organism-based; set-up: dose 100 mg/kg
Mus musculus [18] = assay: Anticonvulsant activity in albino CF1 mouse assessed as protection against subcutaneous metrazol-induced seizures at 100 mg/kg, ip measured after 0.5 hr; type: functional, organism-based; set-up: dose 100 mg/kg
Mus musculus [19] = assay: Anticonvulsant activity in ip dosed albino CF1 mouse assessed as protection against maximal electroshock-induced seizures; type: functional
[20] = Neurotoxicity in ip dosed albino CF1 mouse; type: toxicity, organism-based; details: in vivo
Mus musculus [21] = assay: Anticonvulsant activity in ip dosed albino CF1 mouse assessed as protection against maximal electroshock-induced seizures measured as time to peak effect; type: functional
Rattus norvegicus [22] = assay: Anticonvulsant activity in ip dosed hippocampal kindled albino Sprague-Dawley rat seizure model assessed as time of rest; type: functional, Hippocampus
Mus musculus [23] = assay: Anticonvulsant activity in ip dosed albino CF1 mouse assessed as protection against subcutaneous metrazol-induced seizures; type: functional
Rattus norvegicus [24] = assay: Anticonvulsant activity in ip dosed hippocampal kindled albino Sprague-Dawley rat seizure model; type: functional; details: Hippocampus

For `CC[C@@H](C(N)=O)N1CCCC1=O`, the Time (Mus musculus [1]) was 1 h, the ED50 (Mus musculus [2]) was 94 µmol/kg and the selectivity ratio [3] was over 25.8. The ED50 (Mus musculus [4]) was 114 µmol/kg, the Time (Mus musculus [5]) was 0.5 h and the ED50 (Mus musculus [6]) was 252 µmol/kg.

With `O=C1NC(=O)[C@@H](c2cccc(C(F)(F)F)c2)N2CCC[C@@H]12` the Activity (Mus musculus [7]) was “Toxic”, the Activity (Mus musculus [8]) was “Non-toxic” and the Activity (Mus musculus [9]) was “inactive”. The Activity (Mus musculus [10]) was “Non-toxic”, the Activity (Mus musculus [11]) was “inactive” and the Activity (Mus musculus [12]) was “Active”. The Activity (Mus musculus [13]) was “inactive”, the Activity (Mus musculus [14]) was “Toxic” and the Activity (Mus musculus [15]) was “Non-toxic”. The Activity (Mus musculus [16]) was “inactive”, the Activity (Mus musculus [17]) was “inactive” and the Activity (Mus musculus [18]) was “inactive”.

Work on `COC[C@@H](NC(C)=O)C(=O)NCc1ccccc1` [LACOSAMIDE] yielded an ED50 (Mus musculus [19]) of 18 µmol/kg, a TD50 [20] of 107 µmol/kg and a Time (Mus musculus [21]) of 0.5 h. It also gave a Time (Rattus norvegicus [22]) of 0.25 h, an ED50 (Mus musculus [23]) of over 100 µmol/kg and an ED50 (Rattus norvegicus [24]) of 56 µmol/kg.

For `CCC1(C)CC(=O)NC1=O` (stereo unspecified) [ETHOSUXIMIDE], the ED50 (Mus musculus [19]) was over 3550 µmol/kg, the Time (Mus musculus [1]) was 0.25 h and the TD50 [20] was 2420 µmol/kg. For the same compound, the Time (Mus musculus [21]) was 0.25 h, the ED50 (Mus musculus [4]) was 1180 µmol/kg and the ED50 (Mus musculus [23]) was 964 µmol/kg. The ED50 (Mus musculus [6]) was 166 µmol/kg.
